Laboratory results as given in US20160113265A1, “[…] AND METHODS THEREOF” (Lanodir USA, Inc., priority 2014, published 2016).
Read-outs that look alike come from different tables or passages of the source.

Legend:
[1] = tested on: live pests; assay: Condition of fumigated barge cargo on arrival at destination port (residues, live pests); assay type: in vivo; conditions: approximately two weeks later
Description: (§1) A fumigation apparatus, such as the fumigation apparatus 10 (FIGS. 1A-1C), was provided in a barge hatch at a source shipping port that was subsequently loaded with 2,700 metric tons of corn kernels (cargo). A dose of 2,600 g PH3 was injected (approximately 1.03 g PH3/ton cargo) without the use of a turbine (e.g., fan). A PH3 sensor was then used to measure the air quality immediately above the surface of the cargo and the gas concentration the approximately 1 meter below the surface of the cargo (using a probe) at predetermined time intervals.
as §1, with “On the same day as Experiment 1, a fumigation” for “A fumigation”, “at the” for “at a”, “of 2,200” for “of 2,600”, “(approximately 0.814” for “(approximately 1.03”, “cargo) with” for “cargo) without the use of”, “(e.g., fan) to push the PH3. The” for “(e.g., fan). A”
The day following Experiment 1 and Experiment 2, a fumigation apparatus, such as the fumigation apparatus 10 (FIGS. 1A-1C), was provided in a barge hatch at the source shipping port that was subsequently loaded with 2,700 metric tons of corn kernels (cargo). A dose of 1,700 g PH3 was injected (approximately […]) without auxiliary turbine and only with the air flow of the phosphine mixture delivery equipment itself (e.g., approximately 200 m^3/hour). The PH3 sensor was then used to measure the air quality immediately above the surface of the cargo and the gas concentration the approximately 1 meter below the surface of the cargo (using a probe) at predetermined time intervals.
The same day as Experiment 3, and eight days thereafter, nine barges were loaded and fumigated in a similar manner as in Experiment 3 to test repeatability.

[2] = tested on: Amyelois transitella; conditions: exposed for 24 Hours at 26.7° C. (80° F.), cited from earlier work
[3] = tested on: Orzaephilus surinamensis; conditions: exposed for 24 Hours at 26.7° C. (80° F.), cited from earlier work
[4] = tested on: Tribolium castaneum; conditions: exposed for 24 Hours at 26.7° C. (80° F.), cited from earlier work
[5] = tested on: Tribolium confusum; conditions: exposed for 24 Hours at 26.7° C. (80° F.), cited from earlier work
[6] = tested on: Lasioderma serricorne; conditions: exposed for 24 Hours at 26.7° C. (80° F.), cited from earlier work
[7] = tested on: Carpophilus hemipterus; conditions: exposed for 24 Hours at 26.7° C. (80° F.), cited from earlier work
[8] = tested on: Plodia interpunctella; conditions: exposed for 24 Hours at 26.7° C. (80° F.), cited from earlier work

SMILES: P [PH3, phosphine gas]
- cargo condition on arrival (residues and live pests) ([1]; Experiment 1: 2,600 g PH3 in 2,700 metric tons corn kernels, without turbine): free of residues and live pests
- cargo condition on arrival (residues and live pests) ([1]; Experiment 2: 2,200 g PH3 in 2,700 metric tons corn kernels, with a turbine): free of residues and live pests
- cargo condition on arrival (residues and live pests) ([1]; Experiment 3: 1,700 g PH3 in 2,700 metric tons corn kernels, without auxiliary turbine): free of residues and live pests
- cargo condition on arrival (residues and live pests) ([1]; Experiment 4: nine additional barges fumigated as in Experiment 3): free of residues and live pests
- Percent (%) Mortality adults ([2]; 250 ppm PH3): 100%
- Percent (%) Mortality eggs ([2]; 250 ppm PH3): 0-78%
- Percent (%) Mortality larvae ([2]; 250 ppm PH3): 100%
- Percent (%) Mortality pupae ([2]; 250 ppm PH3): 100%
- Percent (%) Mortality adults ([2]; 500 ppm PH3): 100%
- Percent (%) Mortality eggs ([2]; 500 ppm PH3): 20-80%
- Percent (%) Mortality larvae ([2]; 500 ppm PH3): 100%
- Percent (%) Mortality pupae ([2]; 500 ppm PH3): 100%
- Percent (%) Mortality adults ([2]; 1000 ppm PH3): 100%
- Percent (%) Mortality eggs ([2]; 1000 ppm PH3): 70-100%
- Percent (%) Mortality larvae ([2]; 1000 ppm PH3): 100%
- Percent (%) Mortality pupae ([2]; 1000 ppm PH3): 100%
- Percent (%) Mortality adults ([3]; 250 ppm PH3): 100%
- Percent (%) Mortality eggs ([3]; 250 ppm PH3): 100%
- Percent (%) Mortality larvae ([3]; 250 ppm PH3): 97-100%
- Percent (%) Mortality pupae ([3]; 250 ppm PH3): 100%
- Percent (%) Mortality adults ([3]; 500 ppm PH3): 100%
- Percent (%) Mortality eggs ([3]; 500 ppm PH3): 100%
- Percent (%) Mortality larvae ([3]; 500 ppm PH3): 100%
- Percent (%) Mortality pupae ([3]; 500 ppm PH3): 100%
- Percent (%) Mortality adults ([3]; 1000 ppm PH3): 100%
- Percent (%) Mortality eggs ([3]; 1000 ppm PH3): 100%
- Percent (%) Mortality larvae ([3]; 1000 ppm PH3): 100%
- Percent (%) Mortality pupae ([3]; 1000 ppm PH3): 100%
- Percent (%) Mortality adults ([4]; 250 ppm PH3): 100%
- Percent (%) Mortality eggs ([4]; 250 ppm PH3): 90-100%
- Percent (%) Mortality larvae ([4]; 250 ppm PH3): 100%
- Percent (%) Mortality pupae ([4]; 250 ppm PH3): 100%
- Percent (%) Mortality adults ([4]; 500 ppm PH3): 100%
- Percent (%) Mortality eggs ([4]; 500 ppm PH3): 100%
- Percent (%) Mortality larvae ([4]; 500 ppm PH3): 100%
- Percent (%) Mortality pupae ([4]; 500 ppm PH3): 100%
- Percent (%) Mortality adults ([4]; 1000 ppm PH3): 100%
- Percent (%) Mortality eggs ([4]; 1000 ppm PH3): 100%
- Percent (%) Mortality larvae ([4]; 1000 ppm PH3): 100%
- Percent (%) Mortality pupae ([4]; 1000 ppm PH3): 100%
- Percent (%) Mortality adults ([5]; 250 ppm PH3): 100%
- Percent (%) Mortality eggs ([5]; 250 ppm PH3): 59-80%
- Percent (%) Mortality larvae ([5]; 250 ppm PH3): 100%
- Percent (%) Mortality pupae ([5]; 250 ppm PH3): 89-95%
- Percent (%) Mortality adults ([5]; 500 ppm PH3): 100%
- Percent (%) Mortality eggs ([5]; 500 ppm PH3): 83-100%
- Percent (%) Mortality larvae ([5]; 500 ppm PH3): 100%
- Percent (%) Mortality pupae ([5]; 500 ppm PH3): 89-98%
- Percent (%) Mortality adults ([5]; 1000 ppm PH3): 100%
- Percent (%) Mortality eggs ([5]; 1000 ppm PH3): 100%
- Percent (%) Mortality larvae ([5]; 1000 ppm PH3): 100%
- Percent (%) Mortality pupae ([5]; 1000 ppm PH3): 94-100%
- Percent (%) Mortality adults ([6]; 250 ppm PH3): 100%
- Percent (%) Mortality eggs ([6]; 250 ppm PH3): 87-94%
- Percent (%) Mortality larvae ([6]; 250 ppm PH3): 100%
- Percent (%) Mortality pupae ([6]; 250 ppm PH3): 100%
- Percent (%) Mortality adults ([6]; 500 ppm PH3): 100%
- Percent (%) Mortality eggs ([6]; 500 ppm PH3): 87-96%
- Percent (%) Mortality larvae ([6]; 500 ppm PH3): 100%
- Percent (%) Mortality pupae ([6]; 500 ppm PH3): 100%
- Percent (%) Mortality adults ([6]; 1000 ppm PH3): 100%
- Percent (%) Mortality eggs ([6]; 1000 ppm PH3): 96-100%
- Percent (%) Mortality larvae ([6]; 1000 ppm PH3): 100%
- Percent (%) Mortality pupae ([6]; 1000 ppm PH3): 100%
- Percent (%) Mortality adults ([7]; 250 ppm PH3): 100%
- Percent (%) Mortality eggs ([7]; 250 ppm PH3): 100%
- Percent (%) Mortality larvae ([7]; 250 ppm PH3): 100%
- Percent (%) Mortality pupae ([7]; 250 ppm PH3): 100%
- Percent (%) Mortality adults ([7]; 500 ppm PH3): 100%
- Percent (%) Mortality eggs ([7]; 500 ppm PH3): 100%
- Percent (%) Mortality larvae ([7]; 500 ppm PH3): 100%
- Percent (%) Mortality pupae ([7]; 500 ppm PH3): 100%
- Percent (%) Mortality adults ([7]; 1000 ppm PH3): 100%
- Percent (%) Mortality eggs ([7]; 1000 ppm PH3): 100%
- Percent (%) Mortality larvae ([7]; 1000 ppm PH3): 100%
- Percent (%) Mortality pupae ([7]; 1000 ppm PH3): 100%
- Percent (%) Mortality adults ([8]; 250 ppm PH3): 100%
- Percent (%) Mortality eggs ([8]; 250 ppm PH3): 89-96%
- Percent (%) Mortality larvae ([8]; 250 ppm PH3): 95-100%
- Percent (%) Mortality pupae ([8]; 250 ppm PH3): 100%
- Percent (%) Mortality adults ([8]; 500 ppm PH3): 100%
- Percent (%) Mortality eggs ([8]; 500 ppm PH3): 90-100%
- Percent (%) Mortality larvae ([8]; 500 ppm PH3): 97-99%
- Percent (%) Mortality pupae ([8]; 500 ppm PH3): 100%
- Percent (%) Mortality adults ([8]; 1000 ppm PH3): 100%
- Percent (%) Mortality eggs ([8]; 1000 ppm PH3): 95-100%
- Percent (%) Mortality larvae ([8]; 1000 ppm PH3): 100%
- Percent (%) Mortality pupae ([8]; 1000 ppm PH3): 100%
